Like-named read-outs stand apart in the source and are kept apart here.
How the values were obtained:
[1] = system: IL-23-stimulated Kit225 T cells with STAT-dependent luciferase reporter; experiment: Kit225 T cell assay, STAT-dependent luciferase reporter, IL-23 stimulated; type: cell-based, human; conditions: read-out: IL-23 Kit225 Reporter, LE (IC50)
Method in brief: (§1)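 Kit225 T cells carrying a stably integrated STAT-dependent luciferase reporter, in RPMI with 10% heat-inactivated FBS, stimulated with 20 ng/mL human recombinant IL-23 or 200 U/mL human recombinant IFNα for 5-6 h. Luciferase expression read by Steady-Glo luminescence.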

[2] = system: IFNα-stimulated Kit225 T cells with STAT-dependent luciferase reporter; experiment: Kit225 T cell assay, STAT-dependent luciferase reporter, IFNα stimulated; type: cell-based, human; conditions: 5-6 hours, read-out: IFNa Kit225 Reporter, LE (IC50)
Method in brief: as §1

[3] = 20 ng/mL human recombinant IL-23, 5-6 hours
[4] = 200 U/mL human recombinant IFNα
[5] = Homo sapiens, KIT225, 20 ng/mL human recombinant IL-23, 5-6 hours
[6] = Homo sapiens, KIT225, 200 U/mL human recombinant IFNα

| SMILES | IC50 [1, 3] | IC50 [2, 4] | IC50 [1, 5] | IC50 [2, 6] |
| --- | --- | --- | --- | --- |
| CNc1cc(Nc2cccn(-c3cccc(F)n3)c2=O)nn2c(C(=O)NC3(C#N)CC3)cnc12 [Example 167] | 100 nM | 130 nM | – | – |
| CNc1cc(Nc2cncn(-c3ccccn3)c2=O)nn2c(C(=O)NC3CCC3)cnc12 [Example 71] | 210 nM | 120 nM | – | – |
| CNc1cc(Nc2cc(F)cn(-c3ccccn3)c2=O)nn2c(C(=O)NC3CCC3)cnc12 [Example 150] | 60 nM | 20 nM | – | – |
| CNc1cc(Nc2cccn(-c3ccc(N4CCOCC4)cc3)c2=O)nn2c(C(=O)NC3CC3F)cnc12 (stereo not shown) [Example 147] | 30 nM | 20 nM | – | – |
| CNc1cc(Nc2cccn(-c3cnc(C(C)(C)O)cn3)c2=O)nn2c(C(=O)N[C@@H]3C[C@@H]3F)cnc12 [Example 255, N-((1R,2S)-2-Fluorocyclopropyl)-6-((1-(5-(2-hydroxypropan-2-yl)pyrazin-2-yl)-2-oxo-1,2-dihydropyridin-3-yl)amino)-8-(methylamino)imidazo[1,2-b]pyridazine-3-carboxamide] | – | – | 30.8 nM | 28 nM |
| CCc1ccc(-n2cccc(Nc3cc(NC)c4ncc(C(=O)N[C@@H]5C[C@@H]5F)n4n3)c2=O)nn1 [Example 181] | 290 nM | 350 nM | – | – |
| CC(C)(CO)CNC(=O)c1cnc2c3c(c(Nc4cccn(-c5ccccn5)c4=O)nn12)OCCN3 [Example 242] | – | – | 170 nM | 360 nM |
| CNc1cc(Nc2cccn(C3CCC(N4CCOCC4)CC3)c2=O)nn2c(C(=O)NC3CCC3)cnc12 (stereo not shown) [Example 225] | 100 nM | 30 nM | – | – |
| CCC(C)NC(=O)c1cnc2c(NC)cc(Nc3cccn(C)c3=O)nn12 (single isomer, unassigned) [Example 73] | 190 nM | 120 nM | – | – |
| CNc1cc(Nc2cccn(-c3cnc(C)cn3)c2=O)nn2c(C(=O)N[C@@H]3C[C@@H]3F)cnc12 [Example 103] | 60 nM | 20 nM | – | – |
| CNc1cc(Nc2cccn(-c3ccc(C(C)(C)O)cc3)c2=O)nn2c(C(=O)NC3CC3)cnc12 [Example 26] | 270 nM | 110 nM | – | – |
| CNc1cc(Nc2cncn(-c3ccc(C)nn3)c2=O)nn2c(C(=O)NC3CCC3)cnc12 [Example 78] | 230 nM | 180 nM | – | – |
| CNc1cc(Nc2cccn(-c3cnc(C(=O)N(C)C)cn3)c2=O)nn2c(C(=O)N[C@@H]3C[C@@H]3F)cnc12 [Example 256, 6-((1-(5-(Dimethylcarbamoyl)pyrazin-2-yl)-2-oxo-1,2-dihydropyridin-3-yl)amino)-N-((1R,2S)-2-fluorocyclopropyl)-8-(methylamino)imidazo[1,2-b]pyridazine-3-carboxamide] | – | – | 13 nM | 9.8 nM |
| CNc1cc(Nc2cccn(-c3ncccn3)c2=O)nn2c(C(=O)NC3CCCC3)cnc12 [Example 170] | 190 nM | 370 nM | – | – |
| O=C(NC1CC1)c1cnc2c3c(c(Nc4cccn(-c5ccccn5)c4=O)nn12)OCCN3 [Example 240] | – | – | 60 nM | 210 nM |
| CNc1cc(Nc2cccn(-c3ccc(F)cn3)c2=O)nn2c(C(=O)NC3CC3)cnc12 [Example 36] | 100 nM | 100 nM | – | – |
| CCNC(=O)c1cnc2c(NC)cc(Nc3cccn(-c4ccc(C)nn4)c3=O)nn12 [Example 99] | 110 nM | 230 nM | – | – |
| CNc1cc(Nc2cccn(-c3ccn(C)n3)c2=O)nn2c(C(=O)NC3CC3)cnc12 [Example 158] | 130 nM | 100 nM | – | – |
| CNc1cc(Nc2cccn(-c3ccc(C(C)O)cc3)c2=O)nn2c(C(=O)N[C@@H]3C[C@@H]3F)cnc12 (stereo partly shown) [Example 141] | 160 nM | 180 nM | – | – |
| CNc1cc(Nc2cccn(-c3ccn(C)n3)c2=O)nn2c(C(=O)N[C@@H]3C[C@@H]3F)cnc12 [Example 169] | 80 nM | 40 nM | – | – |
| CNc1cc(Nc2cccn(-c3ncccc3F)c2=O)nn2c(C(=O)NC3CC3)cnc12 [Example 41] | 80 nM | 60 nM | – | – |

| SMILES | IC50 [1, 3] | IC50 [2, 4] | IC50 [1, 5] | IC50 [2, 6] |
| --- | --- | --- | --- | --- |
| CNc1cc(Nc2cc(F)cn(C3CC3)c2=O)nn2c(C(=O)NC3(C#N)CC3)cnc12 [Example 51] | 160 nM | 220 nM | – | – |
| CNc1cc(Nc2cccn(C3CCOC3)c2=O)nn2c(C(=O)NC3CCC3)cnc12 (stereo not shown) [Example 221] | 500 nM | 140 nM | – | – |
| CNc1cc(Nc2cccn(-c3ccc(N4CCOCC4)cc3)c2=O)nn2c(C(=O)NC3CC3)cnc12 [Example 139] | 250 nM | 190 nM | – | – |
| CNc1cc(Nc2cccn(-c3cccc(F)n3)c2=O)nn2c(C(=O)NCc3ccccn3)cnc12 [Example 193] | 140 nM | 330 nM | – | – |
| CNc1cc(Nc2cccn(-c3ccc(F)nc3)c2=O)nn2c(C(=O)NC3(C#N)CC3)cnc12 [Example 28] | 600 nM | 300 nM | – | – |
| CNc1cc(Nc2cccn(-c3ncccc3F)c2=O)nn2c(C(=O)N[C@@H]3C[C@@H]3F)cnc12 [Example 42] | 50 nM | 20 nM | – | – |
| CNc1cc(Nc2cccn(C)c2=O)nn2c(C(=O)NC(C)C)cnc12 [Example 209] | 180 nM | 330 nM | – | – |
| CNc1cc(Nc2cccn(-c3nccc(C(F)(F)F)n3)c2=O)nn2c(C(=O)NC3CCC3)cnc12 [Example 5, N-Cyclobutyl-8-(methylamino)-6-((2-oxo-1-(4-(trifluoromethyl)pyrimidin-2-yl)-1,2-dihydropyridin-3-yl)amino)imidazo[1,2-b]pyridazine-3-carboxamide] | – | – | 150 nM | 150 nM |
| CNc1cc(Nc2cccn(-c3cccc(F)n3)c2=O)nn2c(C(=O)NC3CC3)cnc12 [Example 144] | 140 nM | 80 nM | – | – |
| CNc1cc(Nc2cc(Cl)cn(C)c2=O)nn2c(C(=O)NC3(C#N)CCC3)cnc12 [Example 43] | 590 nM | 110 nM | – | – |
| CNc1cc(Nc2cc(C)cn(-c3ccc(C)nn3)c2=O)nn2c(C(=O)NC3CCC3)cnc12 [Example 92] | 420 nM | 620 nM | – | – |
| CNc1cc(Nc2cccn(-c3ccc(OC)nn3)c2=O)nn2c(C(=O)N[C@@H]3C[C@@H]3F)cnc12 [compound 261] | – | – | 10 nM | 20 nM |
| CNc1cc(Nc2cccn(-c3ccccc3F)c2=O)nn2c(C(=O)NC3CC3)cnc12 [Example 152] | 360 nM | 120 nM | – | – |
| CNc1cc(Nc2cccn(C(C)(C)C)c2=O)nn2c(C(=O)NC3CC3)cnc12 [Example 218] | 190 nM | 130 nM | – | – |
| CNc1cc(Nc2cccn(-c3ccccc3)c2=O)nn2c(C(=O)NC3CC3)cnc12 [Example 119] | 80 nM | 120 nM | – | – |
| CNc1cc(Nc2cccn(-c3ccc(C4CC4)nn3)c2=O)nn2c(C(=O)N[C@@H]3C[C@@H]3F)cnc12 [Example 98] | 40 nM | 20 nM | – | – |
| CNc1cc(Nc2cccn(-c3ccc(C(C)O)cc3)c2=O)nn2c(C(=O)NC3CCC3)cnc12 (stereo not shown) [Example 142] | 70 nM | 90 nM | – | – |
| CNc1cc(Nc2cccn(C3CCC(O)CC3)c2=O)nn2c(C(=O)NC3CC3)cnc12 (stereo not shown) [Example 227] | 620 nM | 370 nM | – | – |
| CNc1cc(Nc2cccn(-c3ccon3)c2=O)nn2c(C(=O)NC3CCC3)cnc12 [Example 56] | 60 nM | 30 nM | – | – |
| CNc1cc(Nc2cccn(-c3ccc(C(=O)N(C)C)cc3)c2=O)nn2c(C(=O)N[C@@H]3C[C@@H]3F)cnc12 [compound 266] | – | – | 120 nM | 110 nM |

Source: patent US10273237B2, “Imidazopyridazine compounds useful as modulators of IL-12, IL-23 and/or IFN-α responses” (BRISTOL-MYERS SQUIBB COMPANY, priority 2013, dated 2019)
